Experimental data as given in publication PMC12592400, “A unique inhibitor conformation selectively targets the DNA polymerase PolC of Gram-positive priority pathogens” (Nature Communications, 2025).
Where “and” joins values, the source holds several entries; their conditions need not be identical. Identical values can stand only once.

Legend:
Assay in all cases: Real-time DNA primer extension assay
[1] = target: T1, E. faecium PolC^F1276L (exonuclease-inactivated) (Enterococcus faecium, UniProt A0A9X4B319, D429A/E431A/F1274L); type: biochemical; settings: for rate of activity (slope of fluorescence intensity change over time): Fig. 4b source data, F1276L
T1 sequence (A0A9X4B319 1-1450 D429A/E431A/F1274L): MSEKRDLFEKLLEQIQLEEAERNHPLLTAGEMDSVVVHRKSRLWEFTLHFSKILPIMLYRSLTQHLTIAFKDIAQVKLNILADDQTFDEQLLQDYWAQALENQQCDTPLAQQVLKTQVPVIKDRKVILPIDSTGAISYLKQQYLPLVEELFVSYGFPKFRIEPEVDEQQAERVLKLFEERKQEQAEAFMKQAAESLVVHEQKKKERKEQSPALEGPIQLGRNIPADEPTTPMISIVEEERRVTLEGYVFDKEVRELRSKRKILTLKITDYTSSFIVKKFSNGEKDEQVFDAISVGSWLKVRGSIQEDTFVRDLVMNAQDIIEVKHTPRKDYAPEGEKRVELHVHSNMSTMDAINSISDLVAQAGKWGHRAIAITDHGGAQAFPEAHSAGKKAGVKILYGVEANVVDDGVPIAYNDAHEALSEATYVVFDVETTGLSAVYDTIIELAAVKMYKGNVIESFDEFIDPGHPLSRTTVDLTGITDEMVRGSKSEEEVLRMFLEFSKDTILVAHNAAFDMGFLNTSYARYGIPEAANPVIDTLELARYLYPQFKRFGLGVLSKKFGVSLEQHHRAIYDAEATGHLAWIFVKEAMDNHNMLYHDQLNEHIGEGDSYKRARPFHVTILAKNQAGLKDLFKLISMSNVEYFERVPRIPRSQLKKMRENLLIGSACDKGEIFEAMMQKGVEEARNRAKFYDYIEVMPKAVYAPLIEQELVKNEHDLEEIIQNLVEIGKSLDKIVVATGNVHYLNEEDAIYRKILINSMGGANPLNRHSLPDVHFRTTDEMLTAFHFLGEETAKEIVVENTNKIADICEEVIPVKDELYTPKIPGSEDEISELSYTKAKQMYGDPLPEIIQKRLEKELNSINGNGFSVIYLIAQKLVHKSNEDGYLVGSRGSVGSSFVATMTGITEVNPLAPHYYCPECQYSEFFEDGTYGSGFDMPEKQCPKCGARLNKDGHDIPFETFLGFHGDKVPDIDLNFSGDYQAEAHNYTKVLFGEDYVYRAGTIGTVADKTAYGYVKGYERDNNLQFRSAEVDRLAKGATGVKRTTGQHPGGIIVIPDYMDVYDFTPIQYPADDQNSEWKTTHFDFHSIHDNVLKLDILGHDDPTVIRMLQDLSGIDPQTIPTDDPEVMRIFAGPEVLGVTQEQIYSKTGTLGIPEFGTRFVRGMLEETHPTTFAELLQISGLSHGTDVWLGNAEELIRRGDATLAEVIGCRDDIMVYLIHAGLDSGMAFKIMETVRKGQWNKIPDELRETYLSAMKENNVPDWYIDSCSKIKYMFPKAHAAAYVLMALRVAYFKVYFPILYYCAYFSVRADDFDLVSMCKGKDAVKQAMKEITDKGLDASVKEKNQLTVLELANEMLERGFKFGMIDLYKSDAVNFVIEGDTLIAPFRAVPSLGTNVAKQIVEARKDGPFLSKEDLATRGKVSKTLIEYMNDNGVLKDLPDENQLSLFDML
Description: (§1) The genes for PolC (locus_tag: MIBBHLJO_01574) and DnaE (locus_tag: MIBBHLJO_00911) from E. faecium ATCC 700221 were codon-optimized for expression in E. coli and synthesized in vector pET28b by Twist Bioscience (San Francisco, CA). Expression constructs for variant PolC proteins were created with QuikChange Site-Directed Mutagenesis (Agilent) with oligonucleotides listed in Supplementary Table 3. F1276L, F1276S, and A1281T were introduced to assess the effect of these mutations on inhibition by ACX compounds. Mutations D972A and D974A were introduced to inactivate the polymerase activity and mutations D431A and E433A were introduced to inactivate the exonuclease activity (Fig. 1d, Supplementary Fig. 1).
(§2) Polymerase activity was monitored in real-time[31],[32] with a 42-nt long 5’ carboxyfluorescein-labelled DNA oligonucleotide template strand (DNASP8_42) annealed to a 30-nt primer oligonucleotide (oMU014). Polymerase activity in this assay is monitored by measuring fluorescence quenching of the labelled DNA template as a result of primer extension by PolC (for details see Supplementary Fig. 1b, c). Both primers were HPLC purified. Primer extension assays were performed in Reaction Buffer (see Gel-based polymerase and exonuclease assays) supplemented with 0.5 mg/mL BSA, 0.05% Tween20 and 25 uM of each dNTP (SRB) in 384-well Black Round Bottom plates (Corning 4514). The polymerase was diluted in the SRB and incubated for at least 5 min in the presence of inhibitor or solvent, with a final solvent concentration of 1%. The reaction was initiated by the addition of an equal volume of DNA substrate in SRB as described below. Fluorescence emission data was collected with a BMG Labtech PHERAstar FSX reader for 30 min at room temperature.
(§3) Compounds were dispensed with an Echo acoustic liquid handler (Beckman Coulter). All compounds were dissolved to 1 mM and 10 mM stocks in 100% DMSO and transferred to Echo LDV or PP source plates (Labcyte, Inc., CA), then dispensed to 384-well plates with a Labcyte Echo550 or Echo650 acoustic dispenser at volumes of 2.5 to 100 nL per well. […] A Mantis microfluidic liquid dispenser (Formulatrix) was used to dispense 5 µL polymerase and 5 µL substrate DNA (individually diluted in SRB) per well. […] The final concentration of DNA was 70 nM.
(§4) Data were analysed and standard error of the means (SEM) determined in Prism 8.4.2 and 10.2.3 (GraphPad). Raw time-course polymerase activity was plotted against time, with SEM of triplicates determined. The rate of activity (represented by signal quenching) was determined during the first 8 min (linear stage) by calculating the slope of fluorescence intensity change (converted to a positive value) over time (in seconds). The slopes were then normalized to percentage activity (%); per ‘replicate range’, 100% activity was defined as polymerase activity in the absence of inhibitor (polymerase control), and 0% activity was determined in the absence of polymerase (DNA signal; negative control). The SEM was determined between ‘replicate ranges’. The IC50 was determined using the dose-response (inhibition) nonlinear regression ‘[Inhibitor] vs. response (three parameters)’ without constraints.

[2] = tested on: E. faecium PolC^F1276S (exonuclease-inactivated); type: biochemical, Enterococcus faecium; settings: versus wild-type PolC
Description: as §1, §2, §3, §4

[3] = tested on: E. faecium PolC^F1276L (exonuclease-inactivated); type: biochemical, Enterococcus faecium; settings: versus wild-type PolC
Description: as §1, §2, §3, §4

Structure (SMILES)	IC50 [1]	rate of activity (slope of fluorescence intensity change over time) ([1]; inhibitor 4 uM)	rate of activity (slope of fluorescence intensity change over time) ([1]; inhibitor 5.75 uM)	rate of activity (slope of fluorescence intensity change over time) ([1]; inhibitor 8.8 uM)	rate of activity (slope of fluorescence intensity change over time) ([1]; inhibitor 20 uM)	rate of activity (slope of fluorescence intensity change over time) ([1]; inhibitor 30 uM)	rate of activity (slope of fluorescence intensity change over time) ([1]; inhibitor 45 uM)	increase in IC50 by the F1276S mutation [2]	increase of IC50 by the F1276L mutation [3]	rate of activity (slope of fluorescence intensity change over time) ([1]; inhibitor 67.5 uM)	rate of activity (slope of fluorescence intensity change over time) ([1]; inhibitor 100 uM)	rate of activity (slope of fluorescence intensity change over time) ([1]; inhibitor 150 uM)
O=c1[nH]c(NCc2ccc3c(c2)OC(F)(F)O3)nc2c(F)nn(CCO)c12 [ACX-801, 5-(((2,2-difluorobenzo[d][1,3]dioxol-5-yl)methyl)amino)-3-fluoro-1-(2-hydroxyethyl)-1,6-dihydro-7H-pyrazolo[4,3-d]pyrimidin-7-one]	> 225 µM	29.6 and 27.7 and 30.1	28.5 and 26.4 and 28.8	26.7 and 28.0 and 26.2	25.3 and 26.0 and 26.9	26.3 and 26.7 and 25.0	25.4	> 8 fold	> 19 fold			
O=c1[nH]c(NCc2ccc(Cl)c(Cl)c2)nc2ncn(CCN3CCOCC3)c12 [IBZ, N^2-(3,4-dichlorobenzyl)-7-(2-[1-morpholinyl]ethyl)guanine]	> 225 µM	28.2 and 29.1 and 29.0	29.9 and 30.4	26.3 and 30.0	26.8 and 26.3	27.4 and 27.1	25.1 and 26.5 and 24.8	> 48 fold	> 48 fold	23.8 and 26.5 and 24.8	24.9 and 23.0 and 25.8	23.2
